Assays:
Type in all cases: cell-based, mouse
[1] = tested on: 4T1.2 cells; test: Cell viability (acid phosphatase assay) of cancer cells treated with Ivermectin; conditions: cells treated with Ivermectin (32 μM, 4 h in figure legends) in the presence of the agent
Procedure: (§1) Cell viability. Cancer cells were plated on 96 well flat-bottom plates and allowed to attach overnight. Cells were then pre-incubated with drugs for 1 h and treated with Ivermectin for 4 h. In the case of 24 h and 48 h incubations the cells, Ivermectin and drugs were plated together. All treatments and controls were done in triplicate wells and results were validated in at least two independent experiments. Following treatment the plates were washed once with PBS and cell viability was measured using the acid phosphatase assay. Briefly, cells were incubated for 1h at 37° C. in 100 μL assay buffer (0.16 M sodium acetate, 0.1% Triton-X-100, supplemented with 4-Nitrophenyl phosphate disodium salt hexahydrate, Sigma Aldrich, at 0.00263 g/ml). Reaction was stopped using 10 μL of 1N sodium hydroxide. Absorption at 405 nm was measured within 10 min using a multi-well plate reader. Mode of cell death and viability of cells in suspension was evaluated using flow cytometry. Briefly, cancer cells were pre-incubated with drugs for 30 min to 1 h, as indicated, treated with Ivermectin for 4 h in 5 ml FACS tubes , washed twice in PBS and stained with PE-conjugated Annexin V and 7AAD (1 μl per 100 μl/200,000 cancer cells) for 15 min.

[2] = tested on: P2X4/P2X7/Pannexin-1 channels; test: Membrane permeabilization to YOPRO-1; conditions: 4T1.2 cells, 3 mM ATP and 32 μM Ivermectin
Procedure: FIGS. 3A-3G. Dual roles of ATP and purinergic signaling in Ivermectin's killing. FIG. 3A: Depletion of extracellular ATP with Apyrase (2500 μunits/ml) exacerbates killing of 4T1.2 cell by Ivermectin. FIG. 3B: Extracellular Ca^2− and ATP contain Ivermectin-induced cell swelling. 4T1.2 cells were treated with 32 μM Ivermectin for 4 h in the presence of 1 mM EDTA or 2500 μunits/ml Apyrase. FIG. 3C: Ivermectin (0.5-32 μM) and high concentrations of extracellular ATP (0.3-3 mM) synergistically open pannexin-1 channels and permeabilize the membrane on live cells (7AAD-positive dead cells were gated out). 4T1.2 cells were treated for 30 min as indicated in the presence of 7 AAD and 5 μM YOPRO-1. FIG. 3D: Analysis of supernatants from Ivermectin-treated murine and human TNBC cells showing rapid release of ATP followed by its transient depletion. Depletion of extracellular ATP with Apyrase (2500 μunits/ml) was used as a positive control. FIG. 3E: Analysis of membrane-proximal ATP levels using cancer cells engineered to express a membrane-bound Luciferase. […] FIG. 3G: The P2X7-specific inhibitor KN-62 (1-10 μM) blocks Ivermectin cytotoxicity (IVM 8-32 μM, 4-48 h treatments). Asterisk (*) indicates p<0.05 relative to untreated or Ivermectin alone controls, respectively.
FIGS. 10A-10L. Extracellular Dual roles of ATP and purinergic signaling in Ivermectin's killing. 4T1.2 cells were treated with Ivermectin for 4 h in the presence of different inhibitors at μM concentrations as indicated. FIG. 10A: The non-specific P2 purinergic receptor inhibitor Suramin (4-400 μM) exacerbates Ivermectin-induced cell death. FIG. 10B: Inhibition of extracellular ATPases with PSB 069 protects against Ivermectin cytotoxicity. FIG. 10C: Blockade of pannexin-1 channels with Panx-1 mimetic blocking peptide (Anaspec) and Probenecid at μM concentrations as indicated exacerbates killing. […] FIG. 10E: ATP plays a transiently protective role only in the mouse but not human breast cancer cells. 4T1.2 and MDA-MB-231 cells were treated with 32 μM Ivermectin for 4 h in the presence of ATP at mM concentrations as indicated. FIG. 10F: qPCR showing up-regulation of P2X4 and P2X7 receptors on several murine cancer cell lines, including 4T1.2 and DD-Her2/neu (breast), and B16 (melanoma). […] Expression of P2X and P2Y purinergic receptors, NOX family members, GABA, and Glycine receptors was analyzed using publicly available breast cancer cell lines datasets. Statistically significant (p<0.05) up-regulation and down-regulation in breast cancer versus normal cells is shown in red and blue, respectively. FIG. 10H: Correlation between sensitivity to Ivermectin and ATP across various human cancer cell lines. Cancer cells were treated for 24 h with 3 mM ATP or Ivermectin at 16 and 32 μM doses as indicated. […]

[3] = tested on: 4T1.2 shRNA (P2X7); test: Synergy between Ivermectin and ATP (CI), P2X7 knockdown cells
Procedure: (§2) FIGS. 5A-5E. CaMKII-independent P2X7-mediated killing. FIG. 5A: qPCR showing the extent of gene knockdown in 4T1.2 cells transfected with shRNA targeting the P2X7 receptor versus non-targeting (NT) control (left panel). […] One million wt, shRNA(NT) and shRNA(P2X7) 4T1.2 cells were plated and incubated for 48 h before evaluation of cell numbers and viability. FIG. 5B: P2X7 knockdown cells are more resistant to ATP and the ATP/IVM combo. 4T1.2 cells were treated for 24 h with 1-3 mM ATP, 6-10 μM Ivermectin, or combinations of ATP and Ivermectin. P2X7 knockdown suppresses the synergy between Ivermectin and high dose ATP, as shown by calculation of combination index (CI) values, see Table 2. FIG. 5C: P2X7 knockdown cells are resistant to ATP/Ivermectin induced membrane permeabilization (Asterisk (*) indicates p<0.05). […] FIG. 5E: Comparison of the protective effects of P2X7, CaMKII, and NADPH oxidases inhibition in short-term (4 h, 32 μM IVM) and long-term (24 h, 12 μM IVM) exposure of 4T1.2 cells to Ivermectin. Asterisk (*) indicates p<0.05 relative to Ivermectin alone controls.
as §1
(§3) Generation of P2X7 receptor knockdown 4T1.2 cells. 4T1.2 cells were transduced using Sigma mission shRNA lentiviral transduction particle with four P2X7 shRNA (NM_011027/TRCN0000068568, NM_011027/TRCN0000068570, NM_011027/TRCN0000068571, NM_011027/TRCN0000068572) or Non-Target control (SHC002V). The viral particles were added to growing cells in the presence of […] POLYBRENE® (Sigma, St Louis, Mo.), and incubated overnight at 37° C. Puromycin selection (2000 ng/ml) was done from third day onwards to select for stably transformed cells.

[4] = tested on: 4T1.2 shRNA (NT); test: Synergy between Ivermectin and ATP (CI), non-targeting control cells
Procedure: as §2, §1, §3

[5] = tested on: 4T1.2 cancer cells; test: Synergy between Ivermectin and ROS (CompuSyn CI); conditions: 4T1.2, 24 h/48 h
Procedure: FIGS. 2A-2C. Role of NADPH oxidases-generated ROS. […] 4T1.2 cells were labeled with a ROS detection probe and treated for 1 h with 32 μM Ivermectin in the presence of 1 mM EDTA, 5mM NAC, 5 μM DPI, 2500 μunits/ml Apyrase, 3 mM ATP, and 10 μM KN-62. […] Triangles (▴) indicate significant antagonism CI>1.0. […] 4T1.2 cancer cells were irradiated (10-20 kRad) or treated with H2O2 (10-1000 μM), PTX (0.1-1 μM), or DOX (1-4 μM) and incubated with Ivermectin for 24 h/48 h. Circles (●) indicate significant synergy CI<1.0, see Table 1. Asterisk (*) indicates p<0.05 relative to untreated or Ivermectin alone controls, respectively.
as §1, with “All treatments and controls were done in triplicate wells and results were validated in at least two independent experiments.” left out

[6] = tested on: murine and human TNBC cells; test: Reactive oxygen species
Procedure: Reactive oxygen and nitrogen species. Cancer cells in suspension were washed with PBS and loaded with 50 μM H2DCFDA (Molecular Probes, Life Technologies, D399) or 5 μM DAF-2 (Cayman Chemical, Catalog #85165) for 30 min at room temperature in the dark. Cells were washed twice with PBS and treated with various doses of Ivermectin in R10 medium. Cells were incubated for 1h in 5 ml FACS tubes at 37° C. and 5% CO2, and immediately analyzed by flow cytometry. Generation of intracellular ROS and NO results in corresponding increases in the GFP fluorescence of the H2DCFDA and DAF-2 probes, respectively.

Clc1cccc(-c2nnnn2Cc2cccnc2)c1Cl [A438079]
effect on Ivermectin-induced cell death [1]: did not observe any protection
block of ATP+Ivermectin-induced membrane permeabilization to YOPRO-1 [2]: suppressed permeabilization to YOPRO-1 in a dose-dependent fashion

Nc1ncnc2c1ncn2[C@@H]1O[C@H](COP(=O)(O)OP(=O)(O)OP(=O)(O)O)[C@@H](O)[C@H]1O [ATP, adenosine triphosphate]
CI values ([3]; ATP 1 + I 6, 24 h): 1.49
CI values ([3]; ATP 1 + I 8, 24 h): 1.39
CI values ([3]; ATP 1 + I 10, 24 h): 1.35
CI values ([3]; ATP 2 + I 6, 24 h): 1.18
CI values ([3]; ATP 2 + I 8, 24 h): 1.03
CI values ([3]; ATP 2 + I 10, 24 h): 1.11
CI values ([3]; ATP 3 + I 6, 24 h): 0.96
CI values ([3]; ATP 3 + I 8, 24 h): 0.91
CI values ([3]; ATP 3 + I 10, 24 h): 0.86
CI values ([4]; ATP 1 + I 6, 24 h): 1.18
CI values ([4]; ATP 1 + I 8, 24 h): 1.01
CI values ([4]; ATP 1 + I 10, 24 h): 1.24
CI values ([4]; ATP 2 + I 6, 24 h): 1.17
CI values ([4]; ATP 2 + I 8, 24 h): 1.01
CI values ([4]; ATP 2 + I 10, 24 h): 1.10
CI values ([4]; ATP 3 + I 6, 24 h): 0.67
CI values ([4]; ATP 3 + I 8, 24 h): 0.64
CI values ([4]; ATP 3 + I 10, 24 h): 0.63

COc1cccc2c1C(=O)c1c(O)c3c(c(O)c1C2=O)C[C@@](O)(C(=O)CO)C[C@@H]3O[C@H]1C[C@H](N)[C@H](O)[C@H](C)O1 [DOX, doxorubicin]
CompuSyn CI values ([5]; DOX 1 + Ivermectin 2): .43
CompuSyn CI values ([5]; DOX 1 + Ivermectin 4): .61
CompuSyn CI values ([5]; DOX 2 + Ivermectin 2): .42
CompuSyn CI values ([5]; DOX 2 + Ivermectin 4): .56

N[C@@H](CCC(=O)N[C@@H](CS)C(=O)NCC(=O)O)C(=O)O [GSH]
effect on Ivermectin-induced cell death [1]: completely failed to prevent, or even delay, Ivermectin-induced killing
blockade of Ivermectin-induced ROS by ROS scavengers [6]: less effective against Ivermectin-induced ROS

OO [H2O2]
CompuSyn CI values ([5]; H2O2 100 + Ivermectin 8): .46
CompuSyn CI values ([5]; H2O2 100 + Ivermectin 16): .39
CompuSyn CI values ([5]; H2O2 1000 + Ivermectin 8): .24
CompuSyn CI values ([5]; H2O2 1000 + Ivermectin 16): .20

CC(=O)N[C@@H](CS)C(=O)O [NAC]
effect on Ivermectin-induced cell death [1]: completely failed to prevent, or even delay, Ivermectin-induced killing
blockade of Ivermectin-induced ROS by ROS scavengers [6]: less effective against Ivermectin-induced ROS

CC(=O)O[C@H]1C(=O)[C@@]2(C)[C@H]([C@H](OC(=O)c3ccccc3)[C@]3(O)C[C@H](OC(=O)[C@H](O)[C@@H](NC(=O)c4ccccc4)c4ccccc4)C(C)=C1C3(C)C)[C@]1(OC(C)=O)CO[C@@H]1C[C@@H]2O [PTX, paclitaxel]
CompuSyn CI values ([5]; PTX 0.1 + Ivermectin 1): .35
CompuSyn CI values ([5]; PTX 0.1 + Ivermectin 2): .52
CompuSyn CI values ([5]; PTX 1 + Ivermectin 1): .30
CompuSyn CI values ([5]; PTX 1 + Ivermectin 2): .51
